The text below walks through data of US20090197949A1, “ANTITUMOR METHODS AND COMPOSITIONS COMPRISING SESQUITERPENE DERIVATIVES” (F.P.L. Pharma, Inc., priority 2001, published 2009).

Structures are written as SMILES. Read-outs that look alike come from different tables or passages of the source. Bounds are passed on as bounds.

Experiment [1] concerns CT-26 mouse colon carcinoma. The experiment is described as follows: In vitro survival assay, resazurin reduction test, CT-26. Type of experiment: cell-based. The conditions noted are these: CT26, CT-26, 48 h. An excerpt:
(§1) Normal human fibroblasts were purchased from Biopredic International (Rennes, France). This frozen culture was obtained from a person abdominal surgical waste and the cells used in this work was from the 7th to the 12th passage of the culture. M4Beu and […], human melanoma cell lines, was established in the laboratory of Dr. J. F. Doré (Institut National de la Santé et de la Recherche Médicale-INSERM, Unit 218, Lyon, France) from metastatic biopsy specimens (Thomasset, N. et al.; British Journal of Cancer, 46, 58-66 (1982)). Murine colon carcinoma cell line CT-26 was obtained from Dr I. J. Fidler (University of Texas M.D. Anderson Cancer Center, Houston). […] The effect of essential oils and compounds of oil on the proliferation of tumour cells was assessed using resazurin reduction test. […] The plates were incubated 1 h at 37° C. in an humidified atmosphere with 5% of CO2 for fluorescence development by living cells. Fluorescence was then measured on the automated 96-well plate reader Fluoroskan Ascent FLTM (Labsystems) using an excitation wavelength of 530 nm and an emission one of 590 nm. […] The essentials oil of jack pine (Pinus banksiana or Pinus divaricata), eastern white cedar (Thuya occidentalis), balsam fir (Abies balsamea), were evaluated for their cytotoxic activity against various tumor cell lines (Table 1). […]
On the technique in general: The colour change of resazurin is a common sign of viable cells or microbes.

Experiment [2] deals with L-929 mouse subcutaneous connective tissue (fibroblast). The experiment is described as follows: In vitro survival assay, resazurin reduction test, L-929. The conditions noted are these: L929, L-929, 48 h. The class given is cell-based.
Excerpt: as §1

A further experiment relates to tumor cell lines. The experiment is described as follows: In vitro cytotoxic/antitumoral activity against tumor cell lines (panel statement). The class given is cell-based.
A further experiment relates to M4BEU human melanoma. The experiment can be described thus: cells. The class given is cell-based. From the text:
(§2) Normal human fibroblasts were purchased from Biopredic International (Rennes, France). This frozen culture was obtained from a person abdominal surgical waste and the cells used in this work was from the 7th to the 12th passage of the culture. M4Beu and […], human melanoma cell lines, was established in the laboratory of Dr. J. F. Doré (Institut National de la Santé et de la Recherche Médicale-INSERM, Unit 218, Lyon, France) from metastatic biopsy specimens (Thomasset, N. et al.; British Journal of Cancer, 46, 58-66 (1982)). Murine colon carcinoma cell line CT-26 was obtained from Dr I. J. Fidler (University of Texas M.D. Anderson Cancer Center, Houston). Breast cancer adenocarcinoma MCF-7 and MDA-MB-231, prostatic adenocarcinoma PC-3, ovary adenocarcinoma SK-OV-3, lung carcinoma A-549, colon adenocarcinoma DLD-1, human cell lines and melanoma 1B16 and fibroblast L-929 murine cell lines were purchased from American Type of Culture Collection (ATCC) or the European Collection of Cell Cultures (ECACC; Salisbury, United-Kingdom). Stock cell cultures were maintained as monolayers in 75-cm^2 culture flasks in GlutamaxTM Eagle's minimum essential medium with Earle's salts (Gibco-BRL, Paisley, Scotland) supplemented with 10% foetal calf serum (Sigma), and 5 ml of a 100× solution of vitamins (Gibco), 5 ml of 100 mM sodium pyruvate (Gibco), 5 ml of 100× non-essential amino acids (Gibco) and 2 mg of gentamicin base (Gibco). Cells were grown in a humidified 37° C. incubator containing 5% CO2. Cells were plated at a density of 5×10^3 cells per well in 96-well microplates (NunclonTM, Nunc) in 100 μl of culture medium and were allowed to adhere for 16 h before treatment. Then, 100 μl of culture medium containing essential oil of Pinus divaricata, essential oil of Thuya occidentalis, essential oil of Abies balsamea, α-humulene (Sigma-Aldrich); isocaryophyllene (Sigma-Aldrich) were added and incubated at 37° C. for 48 h. All compounds were dissolved in ethanol and the final concentration of ethanol in the culture medium was maintained at 0.5% (v/v). The effect of essential oils and compounds of oil on the proliferation of tumour cells was assessed using resazurin reduction test. Resazurin was recently identified as the alamar Blue dye (O'Brien, J. et al.; European Journal of Biochemistry, 267, 5421-6, (2000)). The resazurin reduction test (RRT) was carried out according to the protocol described here. Briefly, plates were rinsed by 200 μl PBS (37° C., Gibco) at 37° C. using an automatic microplate washer (Cell WashTM, Labsystems, Helsinki, Finland) and emptied by overturning on absorbent toweling. Then, 150 μl of a 25 μg/ml solution of resazurin in RPMI 1640 without Phenol red was added in each well using an automatic microvolume dispenser (Multidrop 384TM Labsystems). The plates were incubated 1 h at 37° C. in an humidified atmosphere with 5% of CO2 for fluorescence development by living cells. Fluorescence was then measured on the automated 96-well plate reader Fluoroskan Ascent FLTM (Labsystems) using an excitation wavelength of 530 nm and an emission one of 590 nm. The fluorescence is proportional to the number of living cells in the well and IC50 (drug concentration required to inhibit cell proliferation by 50%) was calculated from the curve of concentration-dependent survival percentage, defined as the fluorescence in experimental wells as a percentage of that in control wells, with blank values subtracted. The essentials oil of jack pine (Pinus banksiana or Pinus divaricata), eastern white cedar (Thuya occidentalis), balsam fir (Abies balsamea), were evaluated for their cytotoxic activity against various tumor cell lines (Table 1). The cell growth inhibition were measured by the fluorescence induced by the metabolic transformation of resazurin in resorufin. The fluorescence is proportional to living cells and allow to evaluate the concentration inhibiting 50% of cell growth (IC50).

Experiment [3] concerns A-549 human lung carcinoma. The experiment is described as follows: cells. The class given is cell-based.
Excerpt: as §2

Experiment [4] relates to MCF-7 human breast adenocarcinoma. The experiment can be described thus: cells. The class given is cell-based.
Excerpt: as §2

For experiment [5], the system named is PC-3 human prostatic adenocarcinoma. The experiment is described as follows: cells. Type of experiment: cell-based.
Excerpt: as §2

The test system of experiment [6] is DLD-1 human colon adenocarcinoma. The experiment can be described thus: cells. The class given is cell-based.
Excerpt: as §2

A further experiment relates to Normal human fibroblasts. The experiment can be described thus: In vitro survival assay, resazurin reduction test, normal fibroblasts. The conditions noted are these: Fibroblast. Type of experiment: cell-based.
Excerpt: as §1, with “Houston). Breast cancer adenocarcinoma MCF-7 and MDA-MB-231, prostatic adenocarcinoma PC-3, ovary adenocarcinoma SK-OV-3, lung carcinoma A-549, colon adenocarcinoma DLD-1, human cell lines and melanoma 1B16 and fibroblast L-929 murine cell lines were purchased from American Type of Culture Collection (ATCC) or the European Collection of Cell Cultures (ECACC; Salisbury, United-Kingdom).” for “Houston).”, “1). The cell growth inhibition were measured by the fluorescence induced by the metabolic transformation of resazurin in resorufin.” for “1).”

The test system of experiment [7] is glutathione-S-transferase. Conditions: Zheng et al. 1992; cited from earlier work.
In experiment [8] the test system is about ten tumor cell lines. The conditions noted are these: Kaneda et al. 1992; cited from earlier work.
Experiment [9] has as its system gastric mucosal injuries induced by necrotizing agents. The conditions noted are these: necrotizing agents such as absolute ethanol and HCl; Tambe et al. 1996; cited from earlier work.
Where [10] appears, read: A549, A-549, 48 h, read-out: IC50.
Where [11] appears, read: MCF7, MCF-7, 48 h, read-out: IC50.

`C=C1CCC=C(C)CC[C@H]2[C@@H]1CC2(C)C` (relative stereo) [Isocaryophyllene, cis-4,11,11-Trimethyl-8-methylenebicyclo[7.2.0]undec-4-ene]: the IC50 in [1] is 46 ± 1 µM; in experiment [2] it was 34 ± 0.8 µM; in the experiment with tumor cell lines (all tumor cells tested, Table 2), less than 100 µM; in the experiment with M4BEU human melanoma (48 h, read-out: IC50), 43 ± 3 µM; in experiment [3] (setting [10]), 59 ± 4 µM; in experiment [4] (setting [11]) it was 84 ± 6 µM. Besides, the IC50 in experiment [5] (PC-3, 48 h, read-out: IC50) was 87 ± 8 µM; in experiment [6] (DLD-1, 48 h, read-out: IC50), 124 ± 17 µM; in the experiment on Normal human fibroblasts (48 h, read-out: IC50) it was 124 ± 15 µM; in the experiment with Normal human fibroblasts (fibroblastic normal cell, Table 2, read-out: activity against fibroblastic normal cell), more than 100 µM.
Turning to `CC1=CCCC(C)=CCC(C)(C)C=CC1` [α-humulene, 2,6,6,9-Tetramethyl-1,4,8-cycloundecatriene], the IC50 in [1] is 53 ± 1 µM; in [2], 50.2 ± 0.3 µM; in the experiment with M4BEU human melanoma (48 h, read-out: IC50), 55 ± 2 µM; in the experiment on M4BEU human melanoma (read-out: cytotoxic activity), less than 100 µM; in experiment [3] (setting [10]), 68 ± 2 µM; in experiment [3] (A549, read-out: cytotoxic activity), less than 100 µM. In addition, the IC50 in experiment [4] (setting [11]) is 73 ± 2 µM; in experiment [4] (MCF7, read-out: cytotoxic activity), less than 100 µM; in [5] (PC-3, 48 h, read-out: IC50), 73 ± 2 µM; in [5] (read-out: cytotoxic activity), less than 100 µM; in experiment [6] (DLD-1, 48 h, read-out: IC50) it was 71 ± 2 µM; in [6] (DLD-1, read-out: cytotoxic activity), less than 100 µM. For the same molecule, the IC50 with Normal human fibroblasts (48 h, read-out: IC50) came to 85 ± 5 µM. For the same molecule, the “glutathione-S-transferase activity in vivo” value in [7] is listed as “increasing of gluthatione-S-transferase activity”.
For `C=C1CC[C@H]2O[C@]2(C)CC[C@@H]2[C@@H]1CC2(C)C` [β-caryophyllene oxide], the “activity in vitro against about ten tumor cell lines” value in experiment [8] was “inactive”. Besides, in the experiment on tumor cell lines, the “antitumoral activity in vitro, evaluated by the Applicants” value is recorded as “no significant bioactivity”. In addition, the “glutathione-S-transferase activity in vivo” value in experiment [7] is given as “increasing of gluthatione-S-transferase activity”.
With `C=C1CC/C=C(\C)CC[C@@H]2[C@@H]1CC2(C)C` [β-caryophyllene], in the experiment on tumor cell lines, the “antitumoral activity in vitro, evaluated by the Applicants” value is on record as “no significant bioactivity”. The “glutathione-S-transferase activity in vivo” value in [7] is recorded as “increasing of gluthatione-S-transferase activity”. Besides, the gastric cytoprotection effect result in experiment [9] was “inhibition of gastric mucosal injuries”.
